From publication PMC10176470, “Engaging a Non-catalytic Cysteine Residue Drives Potent and Selective Inhibition of Caspase-6” (Journal of the American Chemical Society, 2023)
Read-outs that look alike come from different tables or passages of the source.

Tests used:
Type in all cases: cell-based
[1] = target: proteins of HEK293T cells transiently overexpressing caspase-6 (Homo sapiens, UniProt O96008); conditions: exp_ref Probe; protein TOMM40 (O96008); analysis C6
[2] = target: proteins of HEK293T cells transiently overexpressing caspase-6 (Homo sapiens, UniProt P08758); conditions: exp_ref Probe; protein ANXA5 (P08758); analysis C6
[3] = target: proteins of HEK293T cells transiently overexpressing caspase-6 (Homo sapiens, UniProt P08865); conditions: exp_ref Probe; protein RPSA (P08865); analysis C6
[4] = target: T1, proteins of HEK293T cells transiently overexpressing caspase-6 (Homo sapiens, UniProt P09622)
T1 sequence (P09622 36-509): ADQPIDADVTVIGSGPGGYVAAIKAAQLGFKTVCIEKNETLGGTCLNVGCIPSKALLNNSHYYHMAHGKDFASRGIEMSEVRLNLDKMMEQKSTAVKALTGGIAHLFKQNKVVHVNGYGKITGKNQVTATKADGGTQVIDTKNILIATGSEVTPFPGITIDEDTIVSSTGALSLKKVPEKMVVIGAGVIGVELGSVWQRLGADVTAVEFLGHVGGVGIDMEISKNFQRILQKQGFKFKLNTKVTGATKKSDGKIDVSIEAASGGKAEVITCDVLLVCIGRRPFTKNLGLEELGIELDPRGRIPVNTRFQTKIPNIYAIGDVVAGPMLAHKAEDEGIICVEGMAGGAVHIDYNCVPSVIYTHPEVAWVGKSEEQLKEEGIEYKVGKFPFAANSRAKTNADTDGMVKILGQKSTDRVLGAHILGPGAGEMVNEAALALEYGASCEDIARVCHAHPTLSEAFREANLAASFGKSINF

[5] = target: proteins of HEK293T cells transiently overexpressing caspase-6 (Homo sapiens, UniProt P0DMV8); conditions: protein HSPA1A (P0DMV8)
[6] = target: proteins of HEK293T cells transiently overexpressing caspase-6 (Homo sapiens, UniProt P19013); conditions: Probe; protein KRT4 P19013
[7] = target: proteins of HEK293T cells transiently overexpressing caspase-6 (Homo sapiens, UniProt P33993); conditions: Probe; protein MCM7 P33993
[8] = target: proteins of HEK293T cells transiently overexpressing caspase-6 (Homo sapiens, UniProt P43034); conditions: Probe; protein PAFAH1B1 P43034
[9] = target: proteins of HEK293T cells transiently overexpressing caspase-6 (Homo sapiens, UniProt P50914); conditions: exp_ref Probe; protein RPL14 (P50914); analysis C6
[10] = target: proteins of HEK293T cells transiently overexpressing caspase-6 (Homo sapiens, UniProt P52272); conditions: exp_ref Probe; protein HNRNPM (P52272); analysis C6
[11] = target: T2, proteins of HEK293T cells transiently overexpressing caspase-6 (Homo sapiens, UniProt P55212); conditions: for enrich.exp.med: exp_ref Probe
T2 sequence (P55212 24-293): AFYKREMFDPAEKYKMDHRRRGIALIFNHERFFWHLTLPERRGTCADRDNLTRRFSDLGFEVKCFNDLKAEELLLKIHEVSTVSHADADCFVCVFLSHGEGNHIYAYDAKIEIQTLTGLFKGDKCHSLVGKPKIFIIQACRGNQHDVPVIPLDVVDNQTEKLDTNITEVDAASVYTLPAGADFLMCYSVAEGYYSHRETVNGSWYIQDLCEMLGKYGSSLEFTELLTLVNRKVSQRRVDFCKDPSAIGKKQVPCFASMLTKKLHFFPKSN

[12] = target: proteins of HEK293T cells transiently overexpressing caspase-6 (Homo sapiens, UniProt Q04917); conditions: Probe; protein YWHAH Q04917
[13] = target: proteins of HEK293T cells transiently overexpressing caspase-6 (Homo sapiens, UniProt Q7KZF4); conditions: exp_ref Probe; protein SND1 (Q7KZF4); analysis C6
[14] = target: proteins of HEK293T cells transiently overexpressing caspase-6 (Homo sapiens, UniProt Q9BT22); conditions: exp_ref Probe; protein ALG1 (Q9BT22); analysis C6
[15] = target: proteins of HEK293T cells transiently overexpressing caspase-6 (Homo sapiens, UniProt Q9NX40); conditions: protein OCIAD1 (Q9NX40); exp_ref Probe; analysis C6
[16] = target: proteins of HEK293T cells transiently overexpressing caspase-6 (Homo sapiens, UniProt Q9UEG4)
[17] = target: proteins of HEK293T cells transiently overexpressing caspase-6 (Homo sapiens, UniProt Q9Y265); conditions: Probe; protein RUVBL1 Q9Y265
[18] = target: proteins of HEK293T cells transiently overexpressing caspase-6 (Homo sapiens, UniProt Q9Y5B9); conditions: Probe; protein SUPT16H Q9Y5B9
[19] = target: proteins of HEK293T cells transiently overexpressing caspase-6 (Homo sapiens, UniProt Q9Y617); conditions: Probe; protein PSAT1 Q9Y617
[20] = protein CASP6SMALL (P55212), Expt Probe, analysis C6

Chain of proteins of HEK293T cells transiently overexpressing caspase-6 (Homo sapiens, UniProt P0DMV8) (P0DMV8 whole entry): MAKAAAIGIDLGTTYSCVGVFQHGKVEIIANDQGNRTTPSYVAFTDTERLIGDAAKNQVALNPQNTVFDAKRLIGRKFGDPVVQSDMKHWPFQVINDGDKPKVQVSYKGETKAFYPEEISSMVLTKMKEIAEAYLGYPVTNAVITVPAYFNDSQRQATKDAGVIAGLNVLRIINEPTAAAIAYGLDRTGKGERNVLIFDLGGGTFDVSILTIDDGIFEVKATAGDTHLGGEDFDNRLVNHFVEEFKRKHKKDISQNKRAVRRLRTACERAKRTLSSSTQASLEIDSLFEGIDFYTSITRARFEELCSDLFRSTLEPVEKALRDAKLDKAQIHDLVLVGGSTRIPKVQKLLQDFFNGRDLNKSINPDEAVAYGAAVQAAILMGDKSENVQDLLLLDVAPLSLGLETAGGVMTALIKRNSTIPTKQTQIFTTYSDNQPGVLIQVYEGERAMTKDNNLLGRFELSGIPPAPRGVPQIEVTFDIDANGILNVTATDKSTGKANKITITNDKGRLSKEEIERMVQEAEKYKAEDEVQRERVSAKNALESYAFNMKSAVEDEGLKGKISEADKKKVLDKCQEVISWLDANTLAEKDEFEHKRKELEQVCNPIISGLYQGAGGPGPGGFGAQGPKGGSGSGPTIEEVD
Chain of proteins of HEK293T cells transiently overexpressing caspase-6 (Homo sapiens, UniProt Q9UEG4) (Q9UEG4 whole entry): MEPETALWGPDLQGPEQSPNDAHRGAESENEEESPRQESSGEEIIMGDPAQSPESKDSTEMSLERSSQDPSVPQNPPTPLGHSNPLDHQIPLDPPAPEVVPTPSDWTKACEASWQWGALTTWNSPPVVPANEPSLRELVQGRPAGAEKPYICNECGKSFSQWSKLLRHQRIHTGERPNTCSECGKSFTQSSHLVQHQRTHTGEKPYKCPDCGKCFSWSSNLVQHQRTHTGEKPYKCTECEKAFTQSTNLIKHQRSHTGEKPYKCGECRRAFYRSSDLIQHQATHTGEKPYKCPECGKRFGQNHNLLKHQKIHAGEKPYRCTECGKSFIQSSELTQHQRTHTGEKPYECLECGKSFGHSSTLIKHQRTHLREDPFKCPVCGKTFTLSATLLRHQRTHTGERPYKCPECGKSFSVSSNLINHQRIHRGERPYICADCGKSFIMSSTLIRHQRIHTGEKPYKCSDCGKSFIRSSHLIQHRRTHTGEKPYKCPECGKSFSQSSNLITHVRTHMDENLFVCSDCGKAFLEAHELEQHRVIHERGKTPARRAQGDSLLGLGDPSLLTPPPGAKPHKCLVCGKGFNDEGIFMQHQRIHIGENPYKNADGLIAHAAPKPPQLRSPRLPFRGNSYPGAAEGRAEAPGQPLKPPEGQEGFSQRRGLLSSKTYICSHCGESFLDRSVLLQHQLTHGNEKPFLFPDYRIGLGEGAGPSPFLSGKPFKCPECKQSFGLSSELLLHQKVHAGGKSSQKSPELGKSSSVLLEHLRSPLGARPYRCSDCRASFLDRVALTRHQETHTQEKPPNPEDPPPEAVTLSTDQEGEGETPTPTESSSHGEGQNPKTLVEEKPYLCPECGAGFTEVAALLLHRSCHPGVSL
Chain of proteins of HEK293T cells transiently overexpressing caspase-6 (Homo sapiens, UniProt P33993) (P33993 whole entry): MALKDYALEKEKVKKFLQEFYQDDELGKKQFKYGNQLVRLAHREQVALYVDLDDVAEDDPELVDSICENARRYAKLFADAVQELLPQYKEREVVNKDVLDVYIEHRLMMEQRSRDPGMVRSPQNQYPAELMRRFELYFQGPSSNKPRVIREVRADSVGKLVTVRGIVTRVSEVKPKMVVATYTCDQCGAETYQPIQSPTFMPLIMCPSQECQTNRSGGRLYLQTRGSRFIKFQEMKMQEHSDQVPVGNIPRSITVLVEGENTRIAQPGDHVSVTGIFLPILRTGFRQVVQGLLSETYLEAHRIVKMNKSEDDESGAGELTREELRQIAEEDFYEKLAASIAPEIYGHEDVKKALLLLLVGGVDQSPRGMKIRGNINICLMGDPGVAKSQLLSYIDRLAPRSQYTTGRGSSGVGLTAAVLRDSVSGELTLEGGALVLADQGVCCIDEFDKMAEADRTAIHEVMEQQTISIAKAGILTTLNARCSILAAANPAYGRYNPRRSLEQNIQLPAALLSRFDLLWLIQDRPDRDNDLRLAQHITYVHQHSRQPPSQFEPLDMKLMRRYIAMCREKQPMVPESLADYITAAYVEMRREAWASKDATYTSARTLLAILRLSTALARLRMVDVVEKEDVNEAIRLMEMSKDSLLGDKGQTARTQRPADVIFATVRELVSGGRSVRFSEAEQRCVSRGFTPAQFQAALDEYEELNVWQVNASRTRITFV
Chain of proteins of HEK293T cells transiently overexpressing caspase-6 (Homo sapiens, UniProt O96008) (O96008 whole entry): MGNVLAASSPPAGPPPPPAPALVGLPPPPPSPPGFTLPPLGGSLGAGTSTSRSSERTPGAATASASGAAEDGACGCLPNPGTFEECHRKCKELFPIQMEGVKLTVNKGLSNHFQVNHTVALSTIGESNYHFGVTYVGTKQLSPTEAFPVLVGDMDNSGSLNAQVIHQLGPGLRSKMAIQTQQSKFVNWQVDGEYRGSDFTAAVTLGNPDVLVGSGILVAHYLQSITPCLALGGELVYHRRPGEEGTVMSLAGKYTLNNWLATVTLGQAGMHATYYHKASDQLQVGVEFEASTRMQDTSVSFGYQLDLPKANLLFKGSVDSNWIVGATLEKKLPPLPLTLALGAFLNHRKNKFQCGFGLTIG
Chain of proteins of HEK293T cells transiently overexpressing caspase-6 (Homo sapiens, UniProt Q9NX40) (Q9NX40 whole entry): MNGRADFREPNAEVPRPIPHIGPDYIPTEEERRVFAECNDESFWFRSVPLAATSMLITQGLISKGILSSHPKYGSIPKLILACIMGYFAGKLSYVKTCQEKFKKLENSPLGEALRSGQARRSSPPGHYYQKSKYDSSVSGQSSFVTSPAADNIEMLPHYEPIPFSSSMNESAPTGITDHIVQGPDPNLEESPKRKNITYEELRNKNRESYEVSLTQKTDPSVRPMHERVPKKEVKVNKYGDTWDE
Chain of proteins of HEK293T cells transiently overexpressing caspase-6 (Homo sapiens, UniProt P08758) (P08758 whole entry): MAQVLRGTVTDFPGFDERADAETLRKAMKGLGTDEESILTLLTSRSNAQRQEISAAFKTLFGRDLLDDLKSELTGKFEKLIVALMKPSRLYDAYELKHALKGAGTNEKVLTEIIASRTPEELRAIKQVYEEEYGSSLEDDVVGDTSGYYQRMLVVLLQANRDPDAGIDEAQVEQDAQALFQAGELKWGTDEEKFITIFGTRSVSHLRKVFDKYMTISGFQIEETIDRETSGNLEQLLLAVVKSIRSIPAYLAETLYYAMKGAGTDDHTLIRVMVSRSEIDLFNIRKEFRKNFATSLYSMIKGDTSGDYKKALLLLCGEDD
Chain of proteins of HEK293T cells transiently overexpressing caspase-6 (Homo sapiens, UniProt P19013) (P19013 whole entry): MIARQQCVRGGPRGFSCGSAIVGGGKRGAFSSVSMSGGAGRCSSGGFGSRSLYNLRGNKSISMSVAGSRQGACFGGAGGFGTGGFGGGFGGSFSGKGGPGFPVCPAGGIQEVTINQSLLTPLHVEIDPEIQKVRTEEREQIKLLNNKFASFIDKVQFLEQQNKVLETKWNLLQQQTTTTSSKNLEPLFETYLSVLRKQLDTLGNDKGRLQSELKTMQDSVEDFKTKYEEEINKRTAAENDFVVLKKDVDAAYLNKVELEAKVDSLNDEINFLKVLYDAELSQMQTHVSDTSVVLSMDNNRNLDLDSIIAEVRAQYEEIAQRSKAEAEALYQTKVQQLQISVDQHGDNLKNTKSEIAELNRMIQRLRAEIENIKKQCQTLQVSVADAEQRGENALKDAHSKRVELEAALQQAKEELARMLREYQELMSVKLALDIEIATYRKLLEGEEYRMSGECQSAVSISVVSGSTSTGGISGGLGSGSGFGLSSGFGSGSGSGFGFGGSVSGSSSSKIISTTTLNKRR
Chain of proteins of HEK293T cells transiently overexpressing caspase-6 (Homo sapiens, UniProt Q9Y5B9) (Q9Y5B9 whole entry): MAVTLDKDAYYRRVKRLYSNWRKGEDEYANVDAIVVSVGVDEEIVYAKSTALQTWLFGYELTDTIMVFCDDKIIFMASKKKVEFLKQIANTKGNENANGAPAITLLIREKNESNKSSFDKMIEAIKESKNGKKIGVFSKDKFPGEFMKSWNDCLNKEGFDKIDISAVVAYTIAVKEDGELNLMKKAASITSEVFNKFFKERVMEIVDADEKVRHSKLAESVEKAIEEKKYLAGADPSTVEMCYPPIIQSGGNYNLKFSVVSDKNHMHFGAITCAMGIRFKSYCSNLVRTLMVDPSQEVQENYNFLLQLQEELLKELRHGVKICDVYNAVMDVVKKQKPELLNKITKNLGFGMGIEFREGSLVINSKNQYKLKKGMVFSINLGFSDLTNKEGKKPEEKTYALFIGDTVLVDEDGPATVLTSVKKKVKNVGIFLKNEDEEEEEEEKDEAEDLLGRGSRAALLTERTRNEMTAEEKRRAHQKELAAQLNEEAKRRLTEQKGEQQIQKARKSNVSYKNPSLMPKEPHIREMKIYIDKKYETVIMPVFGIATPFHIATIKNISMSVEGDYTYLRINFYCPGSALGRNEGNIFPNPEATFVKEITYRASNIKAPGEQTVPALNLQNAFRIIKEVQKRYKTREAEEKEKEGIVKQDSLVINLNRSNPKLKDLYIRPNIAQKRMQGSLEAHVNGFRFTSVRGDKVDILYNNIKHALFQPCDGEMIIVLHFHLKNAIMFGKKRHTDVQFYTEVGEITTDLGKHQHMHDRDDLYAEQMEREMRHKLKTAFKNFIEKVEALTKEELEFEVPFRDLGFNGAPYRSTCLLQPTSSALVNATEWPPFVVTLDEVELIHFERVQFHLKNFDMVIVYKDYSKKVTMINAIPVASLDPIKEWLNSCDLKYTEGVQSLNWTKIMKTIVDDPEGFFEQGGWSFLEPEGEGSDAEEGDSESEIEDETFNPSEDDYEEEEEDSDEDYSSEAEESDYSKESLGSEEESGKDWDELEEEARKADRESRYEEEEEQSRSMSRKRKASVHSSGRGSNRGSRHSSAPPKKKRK
Chain of proteins of HEK293T cells transiently overexpressing caspase-6 (Homo sapiens, UniProt Q04917) (Q04917 whole entry): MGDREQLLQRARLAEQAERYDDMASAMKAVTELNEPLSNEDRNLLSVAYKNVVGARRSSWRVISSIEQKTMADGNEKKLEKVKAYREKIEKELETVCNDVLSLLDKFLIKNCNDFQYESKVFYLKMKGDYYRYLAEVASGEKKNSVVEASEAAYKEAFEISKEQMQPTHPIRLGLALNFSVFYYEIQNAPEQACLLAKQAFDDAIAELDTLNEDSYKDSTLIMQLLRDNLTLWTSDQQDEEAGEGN

`C#CCOc1ccc([C@@H]2C[C@@H](C(=O)Nc3ccc(OC(F)(F)F)cc3)CN(S(=O)(=O)C=C)C2)cc1` (relative stereo) [13-t] showed an enrich.exp.med [1] of 0.5045, an enrich.exp.med [2] of 0.2384 and an enrich.exp.med [3] of -0.2936. The enrich.exp.med ([4]; Probe, protein DLD P09622) was -1.39, the enrich.exp.med.lin ([4]; protein DLD (P09622)) was 0.3817 and the enrich.exp.med.log2 ([4]; protein DLD (P09622)) was -1.39. The enrich.exp.med ([5]; exp_ref Probe, analysis C6) was 0.4797, the enrich.exp.med.lin [5] was 1.394 and the enrich.exp.med.log2 [5] was 0.4797. The enrich.exp.med [6] was -4.171, the enrich.exp.med [7] was -1.046 and the enrich.exp.med [8] was -1.169. The enrich.exp.med [9] was 0.5362, the enrich.exp.med [10] was 0.2991 and the enrich.exp.med ([11]; protein CASP6LARGE (P55212), analysis C6) was 0.6468. The enrich.exp.med.lin ([11]; protein CASP6LARGE (P55212)) was 1.566, the enrich.exp.med.log2 ([11]; protein CASP6LARGE (P55212)) was 0.6468 and the enrich.exp.med.lin ([11]; protein CASP6SMALL (P55212)) was 9.435. The enrich.exp.med.log2 ([11]; protein CASP6SMALL (P55212)) was 3.238, the enrich.exp.med.lin [11, 20] was 9.435 and the enrich.exp.med.log2 [11, 20] was 3.238. For the same compound, the enrich.exp.med ([11]; protein CASP6SMALL (P55212), analysis C6) was 3.238, the enrich.exp.med [12] was -1.452 and the enrich.exp.med [13] was 0.1516. The enrich.exp.med [14] was 0.4836, the enrich.exp.med [15] was 2.033 and the enrich.exp.med ([16]; Probe, protein ZNF629 Q9UEG4) was -2.2193. For the same compound, the enrich.exp.med.lin ([16]; protein ZNF629 (Q9UEG4)) was 0.2147, the enrich.exp.med.log2 ([16]; protein ZNF629 (Q9UEG4)) was -2.2193 and the enrich.exp.med [17] was -0.45. It also gave an enrich.exp.med [18] of -0.5962 and an enrich.exp.med [19] of -1.015.
